Earlier results, collected in US20210161190A1, “CORE BODY TEMPERATURE REDUCING AGENT, FOOD PRODUCT, AND SLEEP IMPROVING AGENT” (JAPAN TOBACCO INC., priority 2018, published 2021).

Tests used:
[1] = intake of glycine
[2] = system: mouse models of sleep disorder caused by imposed stress
[3] = stress-imposed mouse models, continuous administration 350 to 3000 mg/kg of body weight per day

Row | Structure (SMILES) | core body temperature after intake [1] | percentage of Non-REM sleep [1] | circadian variation in core body temperature ([2]; mice without imposed stress) | REM sleep [2, 3] | non-REM sleep [2, 3]
1 | NCC(=O)O [glycine] | reduces core body temperature | improves the percentage of Non-REM sleep | – | – | –
2 | O=C[C@H](O)[C@H](O)[C@H](O)CO [D-ribose] | – | – | hardly affected | suppressed reduction in REM sleep | promoted increases in non-REM sleep
